Source: patent publication US8802678B2, “Carbonylated (aza) cyclohexanes as dopamine D3 receptor ligands” (Bioprojet, priority 2006, dated 2014)

Compound | melting point [°C]
CCC(=O)C(=O)N1CCC(CCN2CCN(c3cccc4c3CCC4)CC2)CC1.Cl | 202
CC(=O)CCC(=O)N[C@H]1CC[C@H](CCN2CCN(c3cc(C(F)(F)F)cc(C(F)(F)F)c3)CC2)CC1 [Example 222, 4-Oxopentanoic acid (4-{2-[4-(3,5-bis-trifluoromethylphenyl)piperazin-1-yl]ethyl}cyclohexyl)amide] | 172 to 174
CCOCC(=O)N[C@H]1CC[C@H](CCN2CCN(c3ccccc3C)CC2)CC1 [Example 557] | 101
Cl.NC(=O)CCC(=O)N1CCC(CCN2CCN(c3cccc4c3CCC4)CC2)CC1 | 137
O=C(CC(F)(F)F)N[C@H]1CC[C@H](CCN2CCN(c3ccc(F)cc3F)CC2)CC1 [Example 386, N-(4-{2-[4-(2,4-Difluorophenyl)piperazin-1-yl]ethyl}cyclohexyl)-3,3,3-trifluoropropanamide] | 184
CCc1ccc(N2CCN(CC[C@H]3CC[C@H](NC(=O)CC#N)CC3)CC2)cc1 [Example 285, 2-Cyano-N-(4-{2-[4-(4-ethylphenyl)piperazin-1-yl]ethyl}cyclohexyl)acetamide] | 210
COCC(=O)N[C@H]1CC[C@H](CCN2CCC(c3cccc(C)c3C#N)CC2)CC1 [Example 55, N-(4-{2-[4-(2-Cyano-3-methylphenyl)piperidin-1-yl]ethyl}cyclohexyl)-2-methoxyacetamide] | 141
Cl.N#CCCC(=O)N1CCC(CCN2CC=C(c3cc(C(F)(F)F)ccc3F)CC2)CC1 | 150
CC(=O)CN1CCC(CCN2CCN(c3cc(C(F)(F)F)ccc3Cl)CC2)CC1.Cl.Cl | 299
CC(=O)CN1CCC(CCN2CCN(c3cccc(Cl)c3F)CC2)CC1.Cl.Cl | 270
CC(=O)NCC(=O)N[C@H]1CC[C@H](CCN2CCN(c3cccc(F)c3F)CC2)CC1 [Example 145, 2-Acetylamino-N-(4-{2-[4-(2,3-difluorophenyl)piperazin-1-yl]ethyl}cyclohexyl)acetamide] | 218
Cc1cc(Cl)cc(N2CCN(CC[C@H]3CC[C@H](NC(=O)CCCC#N)CC3)CC2)c1 [Example 438, N-(4-{2-[4-(3-Chloro-5-methylphenyl)piperazin-1-yl]ethyl}cyclohexyl)-4-cyanobutanamide] | 165
Cl.N#CCCCC(=O)N1CCC(CCN2CCN(c3cccc(C(F)(F)F)c3)CC2)CC1 | 95
O=C(CC1C=CCC1)N[C@H]1CC[C@H](CCN2CCN(c3cccc(F)c3)CC2)CC1 (stereo partly shown) [Example 420, 2-Cyclopent-2-enyl-N-(4-{2-[4-(3-fluorophenyl)piperazin-1-yl]ethyl}cyclohexyl)acetamide] | 188
Cl.Cl.O=C(CN1CCC(CCN2CCN(c3cccc(C(F)(F)F)c3)CC2)CC1)c1ccc(F)cc1 | 265
Cc1ccc(N2CCN(CC[C@H]3CC[C@H](NC(=O)C4=CCCC4)CC3)CC2)c(F)c1 [Example 518, Cyclopent-1-enecarboxylic acid (4-{2-[4-(2-fluoro-4-methylphenyl)piperazin-1-yl]ethyl}cyclohexyl) amide] | 202
N#CCCC(=O)N[C@H]1CC[C@H](CCN2CCN(c3ccccc3F)CC2)CC1 [Example 266, 3-Cyano-N-(4-{2-[4-(2-fluorophenyl)piperazin-1-yl]ethyl}cyclohexyl)propanamide] | 164

Compound | melting point [°C]
COCC(=O)N[C@H]1CC[C@H](CCN2CCN(c3cccc(C(F)(F)F)c3F)CC2)CC1 [Example 260, N-(4-{2-[4-(2-Fluoro-3-trifluoromethylphenyl)piperazin-1-yl]ethyl}cyclohexyl)-2-methoxyacetamide] | 142
COc1ccccc1N1CCN(CC[C@H]2CC[C@H](NC(=O)CC#N)CC2)CC1 [Example 124, 2-Cyano-N-(4-{2-[4-(2-methoxyphenyl)piperazin-1-yl]ethyl}cyclohexyl)acetamide] | 187
CC(=O)CN1CCC(CCN2CCN(c3cccc(Cl)c3C#N)CC2)CC1.Cl.Cl | 284
COc1cccc(N2CCN(CC[C@H]3CC[C@H](NC(=O)CC#N)CC3)CC2)c1.Cl | 219
CC(=O)NCC(=O)N[C@H]1CC[C@H](CCN2CCN(c3cccc(C(F)(F)F)c3)CC2)CC1 [Example 105, 2-Acetylamino-N-(4-{2-[4-(3-trifluoromethylphenyl)piperazin-1-yl]ethyl}cyclohexyl)acetamide] | 187
Cc1ccc(F)c(N2CCN(CC[C@H]3CC[C@H](NC(=O)CC#N)CC3)CC2)c1 [Example 192, 2-Cyano-N-(4-{2-[4-(2-fluoro-5-methylphenyl)piperazin-1-yl]ethyl}cyclohexyl)acetamide] | 178
N#CCC(=O)N[C@H]1CC[C@H](CCN2CCN(c3ccc(F)cc3)CC2)CC1 [Example 241, 2-Cyano-N-(4-{2-[4-(4-fluoro-phenyl)piperazin-1-yl]ethyl}cyclohexyl)acetamide] | 209
O=C(N[C@H]1CC[C@H](CCN2CCN(c3ccc(Cl)cc3)CC2)CC1)C1=CCCC1 [Example 488, Cyclopent-1-enecarboxylic acid (4-{2-[4-(4-chlorophenyl)-piperazin-1-yl]ethyl}cyclohexyl) amide] | 237
N#CCC(=O)N[C@H]1CC[C@H](CCN2CCN(c3cc(C#N)cc(C(F)(F)F)c3)CC2)CC1 [Example 138, 2-Cyano-N-(4-{2-[4-(3-cyano-5-trifluoromethylphenyl)piperazin-1-yl]ethyl}cyclohexyl)acetamide] | 186
N#CCCC(=O)N[C@H]1CC[C@H](CCN2CCN(c3cc(C(F)(F)F)ccc3F)CC2)CC1 [Example 668, 3-Cyano-N-(4-{2-[4-(2-fluoro-5-trifluoromethylphenyl)piperazin-1-yl]ethyl}cyclohexyl)propanamide] | 164
O=C(N[C@H]1CC[C@H](CCN2CCN(c3cccc(C(F)(F)F)c3)CC2)CC1)C(F)(F)F [Example 38, 2,2,2-Trifluoro-N-(4-{2-[4-(3-trifluoromethylphenyl)piperazin-1-yl]ethyl}cyclohexyl)acetamide] | 134
N#CCCCC(=O)N[C@H]1CC[C@H](CCN2CCN(c3cc(Cl)cc(Cl)c3)CC2)CC1 [Example 261, 4-Cyano-N-(4-{2-[4-(3,5-dichlorophenyl)piperazin-1-yl]ethyl}cyclohexyl)butanamide trans/cis 98/2] | 179
CC(=O)CN1CCC(CCN2CCN(c3cc(C(F)(F)F)ccc3F)CC2)CC1.Cl.Cl | 230
COCCCC(=O)N[C@H]1CC[C@H](CCN2CCN(c3ccc(F)c(C(F)(F)F)c3)CC2)CC1 [Example 754, N-(4-{2-[4-(4-Fluoro-3-trifluoromethylphenyl)piperazin-1-yl]ethyl}cyclohexyl)-4-methoxybutanamide] | 177
N#CCC(=O)N[C@H]1CC[C@H](CCN2CCN(c3ccc(C#N)cc3)CC2)CC1 [Example 370, 2-Cyano-N-(4-{2-[4-(4-cyanophenyl)piperazin-1-yl]ethyl}cyclohexyl)acetamide] | 228
CCOc1cccc(N2CCN(CCC3CCN(CC(C)=O)CC3)CC2)c1.Cl.Cl | 246
Cl.Cl.O=C(CN1CCC(CCN2CCN(c3cccc(C(F)(F)F)c3)CC2)CC1)c1ccccc1 | 260
